Test results reported in ChEMBL document CHEMBL5726613, “5-(N-fused tricyclic aryl tetrahydroisoquinolin-6-yl) pyridin-3-yl acetic acid derivatives as inhibitors of human immunodeficiency virus replication” (2019).
pEC50: −log10 of the molar value.

Experiment: Inhibition of HIV Replication: A recombinant NL-RLuc proviral clone was constructed in which a section of the nef gene from NL4-3 was replaced with the Renilla Luciferase gene. This virus is fully infectious and can undergo multiple cycles of replication in cell culture. In addition, the luciferous reporter provides a simple and easy method for quantitating the extent of virus growth and consequently, the antiviral activity of test compounds. The plasmid pNLRLuc contains the proviral NL-Rluc DNA cloned into pUC18 at the PvuII site. The NL-RLuc virus was prepared by transfection of 293T cells with the plasmid pNLRLuc. Transfections were performed using the LipofectAMINE PLUS kit from Invitrogen (Carlsbad, Calif.) according to the manufacturer and the virus generated was titered in MT-2 cells. For susceptibility analyses, the titrated virus was used to infect MT-2 cells in the presence of compound, and after 5 days of incubation, cells were processed and quantitated for virus growth by the amount of expressed luciferase. Assay media was RPMI 1640 supplemented with 10% heat inactivated fetal bovine serum (FBS), 100 units/ml penicillin G/100 units/ml streptomycin, 10 mM HEPES buffer pH 7.55 and 2 mM L-glutamine. The results from at least 2 experiments were used to calculate the EC50 values. Luciferase was quantitated using the Dual Luciferase kit from Promega (Madison, Wis.). Susceptibility of viruses to compounds was determined by incubation in the presence of serial dilutions of the compound. The 50% effective concentration (EC50) was calculated by using the exponential form of the median effect equation where (Fa)=1/[1+(ED50/drug conc.)m] (Johnson Va., Byington R T. Infectivity Assay. In Techniques in HIV Research. ed. Aldovini A, Walker B D. 71-76. New York: Stockton Press. 1990).
Format: cell-based
Settings: HEK-293T

Compound | pEC50
Cc1nc(C)c([C@H](OC(C)(C)C)C(=O)O)c(N2CCC(C)(C)CC2)c1-c1ccc2c(c1)CCN(c1ncnc3c1oc1ccccc13)C2 | 9.00
Cc1ccc2c(c1)[nH]c1nc(N3CCc4cc(-c5c(C)nc(C)c([C@H](OC(C)(C)C)C(=O)O)c5N5CCC(C)(C)CC5)ccc4C3)nc(Cl)c12 | 8.30
Cc1nc(C)c([C@H](OC(C)(C)C)C(=O)O)c(N2CCC(C)(C)CC2)c1-c1ccc2c(c1)CCN(c1ncnc3c1sc1ccccc13)C2 | 8.40
Cc1nc(C)c([C@H](OC(C)(C)C)C(=O)O)c(N2CCC(C)(C)CC2)c1-c1ccc2c(c1)CCN(c1ncnc3[nH]c4ccccc4c13)C2 | 8.30
Cc1nc(C)c([C@H](OC(C)(C)C)C(=O)O)c(N2CCC(C)(C)CC2)c1-c1ccc2c(c1)CCN(c1ncnc3c1oc1ccc(F)cc13)C2 | 8.70
Cc1nc(C)c([C@H](OC(C)(C)C)C(=O)O)c(N2CCC(C)(C)CC2)c1-c1ccc2c(c1)CCN(c1ncnc3c1oc1cccc(F)c13)C2 | 8.52
CCn1c2ccc(C)cc2c2ncnc(N3CCc4cc(-c5c(C)nc(C)c([C@H](OC(C)(C)C)C(=O)O)c5N5CCC(C)(C)CC5)ccc4C3)c21 | 7.35
Cc1nc(C)c([C@H](OC(C)(C)C)C(=O)O)c(N2CCC(C)(C)CC2)c1-c1ccc2c(c1)CCN(c1ncnc3sc4ccccc4c13)C2 | 8.30
Cc1nc(C)c([C@H](OC(C)(C)C)C(=O)O)c(N2CCC(C)(C)CC2)c1-c1ccc2c(c1)CCN(c1ncnc3c1[nH]c1ccccc13)C2 | 7.62
Cc1nc(C)c([C@H](OC(C)(C)C)C(=O)O)c(N2CCC(C)(C)CC2)c1-c1ccc2c(c1)CCN(c1ncnc3c1oc1ncccc13)C2 | 9.00
Cc1nc(C)c([C@H](OC(C)(C)C)C(=O)O)c(N2CCC(C)(C)CC2)c1-c1ccc2c(c1)CCN(c1ccc3ccc4cccnc4c3n1)C2 | 8.52
CCOc1cccc2oc3c(N4CCc5cc(-c6c(C)nc(C)c([C@H](OC(C)(C)C)C(=O)O)c6N6CCC(C)(C)CC6)ccc5C4)ncnc3c12 | 9.00
Cc1ccc2[nH]c3c(N4CCc5cc(-c6c(C)nc(C)c([C@H](OC(C)(C)C)C(=O)O)c6N6CCC(C)(C)CC6)ccc5C4)ncnc3c2c1 | 7.89
Cc1nc(C)c([C@H](OC(C)(C)C)C(=O)O)c(N2CCC(C)(C)CC2)c1-c1ccc2c(c1)CCN(c1nc3ccccc3c3ccccc13)C2 | 7.51
